Laboratory results as given in patent US20180256673A1, “METHODS FOR TREATING FUNGAL INFECTIONS” (priority 2015, published 2018).
≈ marks a conversion by molar mass, not a printed value. Like-named read-outs stand apart in the source and are kept apart here. Starred links: 1 amine or outer side, 2 acyl side, 3 side chain; linkers in the order of their positions; H or OH if unused. Positions of bridges follow the written chain, without caps; N, C: chain ends. Non-standard residues stand in square brackets, D forms with d. Residues, ends and D or L forms follow the SMILES beside them. *: point of attachment. hTyr(3S-OH,4S-OH,3'-OSO3H) = N[C@H](C(=O)O)[C@H](O)[C@@H](O)c1ccc(O)c(OS(=O)(=O)O)c1; Orn(4R-OH,5R-OH) = O=C([C@H](C[C@@H](O)[C@@H](O)N[*:3])N[*:1])[*:2]; Pro(3S-OH,4S-Me) = C[C@H]1CN[C@H](C(=O)O)[C@H]1O; X1 = CCCCCOc1ccc(-c2cc(-c3ccc(C(=O)*)cc3)no2)cc1; Gln(3R-OH) = NC(=O)C[C@@H](O)[C@H](N)C(=O)O; Hyp = O=C(O)[C@@H]1C[C@@H](O)CN1

Key:
[1] = tested on: C. albicans vaginal isolates; test: Susceptibility testing of VVC clinical isolates at pH 7 and 4 (CLSI M27-A3); format: cell-based, Candida albicans; conditions: Candida albicans
[2] = tested on: C. tropicalis vaginal isolates; test: as above; format: cell-based; conditions: Candida tropicalis
[3] = tested on: Cryptococcus neoformans var. grubii; test: Broth microdilution of invasive fungal isolates (CLSI M27-A3/M38-A2); format: cell-based
Candida glabrata = test: microbe, parasite or virus in culture; format: cell-based
Candida krusei = test: Broth microdilution of invasive fungal isolates (CLSI M27-A3/M38-A2); format: cell-based
Candida albicans = test: as above; format: cell-based

## CCCCCOc1ccc(-c2cc(-c3ccc(C(=O)N[C@H]4C[C@@H](O)[C@@H](O)NC(=O)[C@@H]5[C@@H](O)[C@@H](C)CN5C(=O)[C@H]([C@H](O)CC(N)=O)NC(=O)[C@H]([C@H](O)[C@@H](O)c5ccc(O)c(OS(=O)(=O)O)c5)NC(=O)[C@@H]5C[C@@H](O)CN5C(=O)[C@H]([C@@H](C)O)NC4=O)cc3)no2)cc1 [MCF, micafungin] (X1-[Orn(4R-OH,5R-OH)]T[Hyp][hTyr(3S-OH,4S-OH,3'-OSO3H)][Gln(3R-OH)][Pro(3S-OH,4S-Me)]; lactam 1-C)
[1]; 24 h, pH 4
  MIC90: 0.125 µg/mL (≈ 0.0984 µM)
[1]; 24 h, pH 7
  MIC90: 0.008 µg/mL (≈ 0.0063 µM)
[1]; 48 h, pH 4
  MIC90: 0.25 µg/mL (≈ 0.197 µM)
[1]; 48 h, pH 4, fluconazole-resistant isolate 1, pH 4
  MIC: 0.016 µg/mL (≈ 0.0126 µM)
[1]; 48 h, pH 4, fluconazole-resistant isolate 2, pH 4
  MIC: 0.016 µg/mL (≈ 0.0126 µM)
[1]; 48 h, pH 4, fluconazole-resistant isolate 3, pH 4
  MIC: 0.016 µg/mL (≈ 0.0126 µM)
[1]; 48 h, pH 4, fluconazole-resistant isolate 4, pH 4
  MIC: 0.03 µg/mL (≈ 0.0236 µM)
[1]; 48 h, pH 4, fluconazole-resistant isolate 5, pH 4
  MIC: 0.016 µg/mL (≈ 0.0126 µM)
[1]; 48 h, pH 4, fluconazole-resistant isolate 6, pH 4
  MIC: 0.03 µg/mL (≈ 0.0236 µM)
[1]; 48 h, pH 4, fluconazole-resistant isolate 7, pH 4
  MIC: 0.25 µg/mL (≈ 0.197 µM)
[1]; 48 h, pH 4, fluconazole-resistant isolate 8, pH 4
  MIC: 0.06 µg/mL (≈ 0.0472 µM)
[1]; 48 h, pH 4, fluconazole-resistant isolate 9, pH 4
  MIC: 0.125 µg/mL (≈ 0.0984 µM)
[1]; 48 h, pH 4, fluconazole-resistant isolate 10, pH 4
  MIC: 0.06 µg/mL (≈ 0.0472 µM)
[1]; 48 h, pH 7
  MIC90: 0.03 µg/mL (≈ 0.0236 µM)
[1]; 48 h, pH 7, fluconazole-resistant isolate 1, pH 7
  MIC: 0.008 µg/mL (≈ 0.0063 µM)
[1]; 48 h, pH 7, fluconazole-resistant isolate 2, pH 7
  MIC: 0.016 µg/mL (≈ 0.0126 µM)
[1]; 48 h, pH 7, fluconazole-resistant isolate 3, pH 7
  MIC: 0.008 µg/mL (≈ 0.0063 µM)
[1]; 48 h, pH 7, fluconazole-resistant isolate 4, pH 7
  MIC: 0.008 µg/mL (≈ 0.0063 µM)
[1]; 48 h, pH 7, fluconazole-resistant isolate 5, pH 7
  MIC: 0.06 µg/mL (≈ 0.0472 µM)
[1]; 48 h, pH 7, fluconazole-resistant isolate 6, pH 7
  MIC: 0.008 µg/mL (≈ 0.0063 µM)
[1]; 48 h, pH 7, fluconazole-resistant isolate 7, pH 7
  MIC: 0.06 µg/mL (≈ 0.0472 µM)
[1]; 48 h, pH 7, fluconazole-resistant isolate 8, pH 7
  MIC: 0.008 µg/mL (≈ 0.0063 µM)
[1]; 48 h, pH 7, fluconazole-resistant isolate 9, pH 7
  MIC: 0.06 µg/mL (≈ 0.0472 µM)
[1]; 48 h, pH 7, fluconazole-resistant isolate 10, pH 7
  MIC: 0.008 µg/mL (≈ 0.0063 µM)
[2]; 24 h, pH 4
  MIC90: 0.06 µg/mL (≈ 0.0472 µM)
[2]; 24 h, pH 7
  MIC90: 0.016 µg/mL (≈ 0.0126 µM)
[2]; 48 h, pH 4
  MIC90: 0.06 µg/mL (≈ 0.0472 µM)
[2]; 48 h, pH 7
  MIC90: 0.03 µg/mL (≈ 0.0236 µM)
[3]; 19 isolates
  Cumulative % of isolates inhibited at MIC >8 μg/mL: (100.0) %
  Number of isolates inhibited at MIC >8 μg/mL: 19
[3]; Cryptococcus neoformans
  MIC50: 8 µg/mL (≈ 6.3 µM)
  MIC90: 8 µg/mL (≈ 6.3 µM)
Candida glabrata
  Cumulative % of isolates inhibited at MIC 0.015 μg/mL: (74.0) %
  Cumulative % of isolates inhibited at MIC 0.03 μg/mL: (95.0) %
  Cumulative % of isolates inhibited at MIC 0.06 μg/mL: (95.0) %
  Cumulative % of isolates inhibited at MIC 0.12 μg/mL: (95.0) %
  Cumulative % of isolates inhibited at MIC 0.25 μg/mL: (95.0) %
  Cumulative % of isolates inhibited at MIC 0.5 μg/mL: (95.0) %
  Cumulative % of isolates inhibited at MIC 1 μg/mL: (95.0) %
  Cumulative % of isolates inhibited at MIC 2 μg/mL: (98.0) %
  Cumulative % of isolates inhibited at MIC 4 μg/mL: (100.0) %
  Cumulative % of isolates inhibited at MIC ≤0.008 μg/mL: (1.0) %
  MIC according to CLSI method: 4 µg/mL (≈ 3.15 µM)
  Number of isolates inhibited at MIC 0.015 μg/mL: 73
  Number of isolates inhibited at MIC 0.03 μg/mL: 21
  Number of isolates inhibited at MIC 0.06 μg/mL: 0
  Number of isolates inhibited at MIC 0.12 μg/mL: 0
  Number of isolates inhibited at MIC 0.25 μg/mL: 0
  Number of isolates inhibited at MIC 0.5 μg/mL: 0
  Number of isolates inhibited at MIC 1 μg/mL: 0
  Number of isolates inhibited at MIC 2 μg/mL: 3
  Number of isolates inhibited at MIC 4 μg/mL: 2
  Number of isolates inhibited at MIC ≤0.008 μg/mL: 1
Candida glabrata; Nakaseomyces glabratus, read-out: MIC50
  MIC50: 0.015 µg/mL (≈ 0.0118 µM)
Candida glabrata; Nakaseomyces glabratus, read-out: MIC90
  MIC90: 0.03 µg/mL (≈ 0.0236 µM)
Candida glabrata; Nakaseomyces glabratus, read-out: MIC according to CLSI method
  MIC: 2 µg/mL (≈ 1.57 µM)
Candida glabrata; Nakaseomyces glabratus, read-out: MIC results
  MIC: 2 to 4 µg/mL (≈ 1.57 to 3.15 µM)
Candida krusei; 16 isolates
  Cumulative % of isolates inhibited at MIC 0.06 μg/mL: (50.0) %
  Cumulative % of isolates inhibited at MIC 0.12 μg/mL: (100.0) %
  Number of isolates inhibited at MIC 0.06 μg/mL: 8
  Number of isolates inhibited at MIC 0.12 μg/mL: 8
Candida krusei; Pichia kudriavzevii
  MIC50: 0.06 µg/mL (≈ 0.0472 µM)
  MIC90: 0.12 µg/mL (≈ 0.0945 µM)
Candida albicans; 251 isolates
  Cumulative % of isolates inhibited at MIC 0.015 μg/mL: (74.9) %
  Cumulative % of isolates inhibited at MIC 0.03 μg/mL: (100.0) %
  Cumulative % of isolates inhibited at MIC ≤0.008 μg/mL: (6.8) %
  Number of isolates inhibited at MIC 0.015 μg/mL: 171
  Number of isolates inhibited at MIC 0.03 μg/mL: 63
  Number of isolates inhibited at MIC ≤0.008 μg/mL: 17
Candida albicans; Candida albicans
  MIC50: 0.015 µg/mL (≈ 0.0118 µM)
  MIC90: 0.03 µg/mL (≈ 0.0236 µM)
